Assay results as given in ChEMBL document CHEMBL3351528, “Targeting dopamine D3 and serotonin 5-HT1A and 5-HT2A receptors for developing effective antipsychotics: synthesis, biological characterization, and behavioral studies” (J Med Chem, 2014).
pKi: −log10 of the molar value. Calls of active or inactive are those of the source. No cut-off for these calls is given here.

Tests used:
D(3) dopamine receptor [1] = molecular target: T1, D(3) dopamine receptor (Homo sapiens, UniProt P35462)
Description: Binding affinity to dopamine D3 receptor (unknown origin)

D(2) dopamine receptor = D(2) dopamine receptor (Homo sapiens, UniProt P14416)
D(2) dopamine receptor, sequence (P14416 whole entry): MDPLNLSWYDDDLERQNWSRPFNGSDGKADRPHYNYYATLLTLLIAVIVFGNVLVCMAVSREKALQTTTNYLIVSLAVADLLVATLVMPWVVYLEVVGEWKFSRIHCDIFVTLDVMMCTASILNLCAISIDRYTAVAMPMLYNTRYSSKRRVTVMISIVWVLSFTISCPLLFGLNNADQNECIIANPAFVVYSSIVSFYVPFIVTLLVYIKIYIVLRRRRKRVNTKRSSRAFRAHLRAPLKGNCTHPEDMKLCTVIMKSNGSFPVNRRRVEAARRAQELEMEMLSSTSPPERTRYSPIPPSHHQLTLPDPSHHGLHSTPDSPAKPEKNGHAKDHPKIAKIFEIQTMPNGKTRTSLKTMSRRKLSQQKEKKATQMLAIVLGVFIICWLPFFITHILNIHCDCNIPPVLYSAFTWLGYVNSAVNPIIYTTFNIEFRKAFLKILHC
Description: Binding affinity to dopamine D2 receptor (unknown origin)

[2] = molecular target: 5-hydroxytryptamine receptor 2A (Homo sapiens, UniProt P28223)
5-hydroxytryptamine receptor 2A, sequence (P28223 whole entry): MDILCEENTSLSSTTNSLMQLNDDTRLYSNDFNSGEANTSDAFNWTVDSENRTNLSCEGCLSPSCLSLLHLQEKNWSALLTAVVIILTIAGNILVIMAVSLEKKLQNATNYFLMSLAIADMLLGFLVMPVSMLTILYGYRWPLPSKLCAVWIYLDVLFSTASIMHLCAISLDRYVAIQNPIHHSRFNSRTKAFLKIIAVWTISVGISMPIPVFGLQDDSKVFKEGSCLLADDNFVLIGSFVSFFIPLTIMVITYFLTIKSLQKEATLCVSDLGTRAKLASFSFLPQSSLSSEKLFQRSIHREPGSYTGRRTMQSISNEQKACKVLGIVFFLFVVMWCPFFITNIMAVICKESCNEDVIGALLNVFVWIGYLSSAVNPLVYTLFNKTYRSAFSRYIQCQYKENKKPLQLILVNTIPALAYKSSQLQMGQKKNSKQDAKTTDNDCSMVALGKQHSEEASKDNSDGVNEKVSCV
Description: Binding affinity to 5HT2A receptor (unknown origin)

Mus musculus [3] = experiment: Toxicity in NMRI mouse assessed as induction of catalepsy at 30 mg/kg, sc dosed 30 mins before test; type: organism-based; design: dose 30 mg/kg, route subcutaneous; details: in vivo, 0.5 h
[4] = molecular target: T2, 5-hydroxytryptamine receptor 1A (Homo sapiens, UniProt P08908)
T2 sequence (P08908 whole entry): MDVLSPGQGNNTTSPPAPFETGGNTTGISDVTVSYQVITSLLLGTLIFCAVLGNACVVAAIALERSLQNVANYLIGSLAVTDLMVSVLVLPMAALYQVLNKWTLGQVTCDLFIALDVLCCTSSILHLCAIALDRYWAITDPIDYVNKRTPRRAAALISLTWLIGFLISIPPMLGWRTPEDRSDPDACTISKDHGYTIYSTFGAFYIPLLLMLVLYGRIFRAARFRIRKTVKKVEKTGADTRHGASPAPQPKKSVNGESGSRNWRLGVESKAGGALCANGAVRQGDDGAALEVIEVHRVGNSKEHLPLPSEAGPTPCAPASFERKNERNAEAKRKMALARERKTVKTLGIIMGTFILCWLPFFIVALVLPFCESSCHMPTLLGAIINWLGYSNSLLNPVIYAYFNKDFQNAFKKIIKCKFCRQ
Description: Binding affinity to 5HT1A receptor (unknown origin)

Mus musculus [5] = species: Mus musculus; details: in vivo, sc, 0.5 h
Description: Effect on spontaneous exploratory locomotor activity in sc dosed NMRI mouse measured for 30 mins with activity counts each 5 mins

Mus musculus [6] = species: Mus musculus; experiment: animal or person; details: NMRI, sc, read-out: MED
Description: Antipsychotic-like activity in sc dosed NMRI mouse assessed as reduction in methamphetamine-induced locomotor activity dosed 15 to 30 mins before administration of methamphetamine measured for 60 mins

[7] = molecular target: T3, 5-hydroxytryptamine receptor 2C (Homo sapiens, UniProt P28335)
T3 sequence (P28335 whole entry): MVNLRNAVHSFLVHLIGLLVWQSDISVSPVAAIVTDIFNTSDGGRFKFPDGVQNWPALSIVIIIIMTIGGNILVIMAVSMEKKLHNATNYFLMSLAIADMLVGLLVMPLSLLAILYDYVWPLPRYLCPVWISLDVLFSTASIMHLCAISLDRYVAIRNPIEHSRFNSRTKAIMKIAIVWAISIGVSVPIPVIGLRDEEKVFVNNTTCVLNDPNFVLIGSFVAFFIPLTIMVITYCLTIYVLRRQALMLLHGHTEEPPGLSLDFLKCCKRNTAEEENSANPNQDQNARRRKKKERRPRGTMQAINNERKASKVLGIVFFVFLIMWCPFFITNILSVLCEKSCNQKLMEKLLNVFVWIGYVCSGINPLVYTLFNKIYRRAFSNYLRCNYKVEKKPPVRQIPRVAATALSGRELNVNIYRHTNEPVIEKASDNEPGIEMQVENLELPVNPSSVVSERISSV
Description: Binding affinity to 5HT2C receptor (unknown origin)

Mus musculus [8] = experiment: Antipsychotic-like activity in sc dosed NMRI mouse assessed as reduction in MK801-induced locomotor activity dosed 15 to 30 mins before administration of MK801 measured for 60 mins; type: functional; details: read-out: MED
Mus musculus [9] = experiment: Effect on spontaneous locomotor activity in mouse at 10 mg/kg, ip; type: ADME, organism-based; design: dose 10 mg/kg, route intraperitoneal; details: in vivo
Mus musculus [10] = experiment: Anxiolytic activity in mouse at 10 mg/kg, ip dosed 30 mins before test by marble burying method; type: functional, organism-based; design: dose 10 mg/kg
Rattus norvegicus [11] = experiment: Increase in heart rate in anaesthetized rat at 10 mg/kg, iv; type: functional, organism-based; design: dose 10 mg/kg
Rattus norvegicus [12] = experiment: Induction of c-Fos in ip dosed rat nucleus accumbens; type: functional, organism-based
Rattus norvegicus [13] = experiment: Reduction in blood pressure in anaesthetized rat at 10 mg/kg, iv; type: functional, organism-based; design: dose 10 mg/kg
Rattus norvegicus [14] = experiment: Induction of c-Fos in rat nucleus accumbens shell region at 3 to 30 mg/kg, ip; type: functional, organism-based
Mus musculus [15] = experiment: Increase in prepulse inhibition in mouse at 30 mg/kg, po dosed 30 mins before testing; type: functional, organism-based; design: dose 30 mg/kg
Rattus norvegicus [16] = experiment: Induction of c-Fos in rat nucleus accumbens core region at 30 mg/kg, ip; type: functional, organism-based; design: dose 30 mg/kg
Mus musculus [17] = experiment: Anti-psychotic activity in mouse assessed as amelioration of PCP-induced disruption of prepulse inhibition at 3 mg/kg, po; type: functional, organism-based; design: dose 3 mg/kg
Rattus norvegicus [18] = experiment: Increase in dopamine release in Wistar rat medial prefrontal cortex at 10 mg/kg, sc measured for 90 mins administered as single dose by microdialysis method; type: functional, organism-based; design: dose 10 mg/kg
[19] = molecular target: 5-hydroxytryptamine receptor 2A (Rattus norvegicus) (UniProt P14842); experiment: Antagonist activity at 5HT2A receptor in rat aortic rings assessed as reduction in 5-HT-induced contraction relative to control; details: concentration not given here
5-hydroxytryptamine receptor 2A (Rattus norvegicus), sequence (P14842 whole entry): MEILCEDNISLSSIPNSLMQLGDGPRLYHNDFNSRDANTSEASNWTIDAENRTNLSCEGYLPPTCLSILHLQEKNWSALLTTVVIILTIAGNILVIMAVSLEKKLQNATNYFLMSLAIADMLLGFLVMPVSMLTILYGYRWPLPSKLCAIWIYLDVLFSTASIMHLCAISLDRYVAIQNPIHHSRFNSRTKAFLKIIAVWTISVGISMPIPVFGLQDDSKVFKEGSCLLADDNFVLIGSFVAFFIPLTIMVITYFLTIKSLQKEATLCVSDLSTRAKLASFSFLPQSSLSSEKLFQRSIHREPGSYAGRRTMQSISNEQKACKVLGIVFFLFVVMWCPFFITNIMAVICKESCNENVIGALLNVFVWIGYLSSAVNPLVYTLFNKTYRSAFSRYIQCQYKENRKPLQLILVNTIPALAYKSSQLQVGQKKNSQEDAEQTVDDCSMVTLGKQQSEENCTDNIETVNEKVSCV

Rattus norvegicus [20] = experiment: Increase in dopamine release in Wistar rat nucleus accumbens at 10 mg/kg, sc measured during 0 to 90 mins administered as single dose by microdialysis method; type: functional, organism-based; design: dose 10 mg/kg
D(3) dopamine receptor [21] = molecular target: T1, D(3) dopamine receptor; experiment: Antagonist activity at human dopamine D3 receptor expressed in CHO-K1 cells assessed as reduction in dopamine-induced response by [35S]GTPgammaS binding assay relative to control; type: functional, cell-based; details: concentration not given here
[22] = molecular target: T4, 5-hydroxytryptamine receptor 1A (Homo sapiens) (UniProt P08908); experiment: Agonist activity at human 5HT1A receptor (unknown origin) expressed in CHO cells by [35S]GTPgammaS binding assay relative to 5-HT; type: functional, cell-based
T4 sequence (whole entry): T2 sequence (P08908 whole entry)

Rattus norvegicus [23] = experiment: Induction of c-Fos in rat dorsolateral striatum region at 30 mg/kg, ip; type: functional, organism-based; design: dose 30 mg/kg
Mus musculus [24] = experiment: Anti-psychotic activity in mouse assessed as amelioration of PCP-induced disruption of prepulse inhibition at 30 mg/kg, po; type: functional, organism-based; design: dose 30 mg/kg
Rattus norvegicus [25] = experiment: Induction of c-Fos in rat nucleus accumbens core region at 10 mg/kg, ip; type: functional, organism-based; design: dose 10 mg/kg
D(3) dopamine receptor [26] = molecular target: T1, D(3) dopamine receptor; experiment: Agonist activity at human dopamine D3 receptor expressed in CHO-K1 cells by [35S]GTPgammaS binding assay relative to dopamine; type: functional, cell-based
[27] = molecular target: T4, 5-hydroxytryptamine receptor 1A (Homo sapiens); experiment: Antagonist activity at human 5HT1A receptor (unknown origin) expressed in CHO cells reduction in 5-HT-induced response by [35S]GTPgammaS binding assay; type: functional, cell-based; details: concentration not given here
Mus musculus [28] = experiment: Anxiolytic activity in orally dosed mouse dosed 30 mins before test by marble burying method; type: functional, organism-based

T1 sequence (P35462 whole entry): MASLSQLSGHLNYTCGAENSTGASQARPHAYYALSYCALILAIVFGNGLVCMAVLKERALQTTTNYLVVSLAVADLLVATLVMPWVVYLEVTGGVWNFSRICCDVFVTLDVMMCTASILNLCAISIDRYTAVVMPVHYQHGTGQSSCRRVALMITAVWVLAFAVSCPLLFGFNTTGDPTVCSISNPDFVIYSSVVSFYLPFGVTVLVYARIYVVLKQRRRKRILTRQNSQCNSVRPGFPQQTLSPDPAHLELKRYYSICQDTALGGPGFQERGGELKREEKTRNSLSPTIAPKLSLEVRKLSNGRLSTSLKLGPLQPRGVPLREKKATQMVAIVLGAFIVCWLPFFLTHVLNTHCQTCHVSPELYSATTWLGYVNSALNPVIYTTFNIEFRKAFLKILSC

Question: `Cc1cccc(N2CCN(CCCCNC(=O)c3cc4ccccc4cn3)CC2)c1` was tested. Which pKi (D(3) dopamine receptor [1]) did it give?
Answer: The pKi was 8.30.

Question: What about the pKi (D(2) dopamine receptor) of the same compound?
Answer: Its pKi is 6.54.

Question: What about the pKi [2] of the same compound?
Answer: The pKi was 7.82.

Question: And the Activity (Mus musculus [3])?
Answer: Its Activity is “Non-toxic”.

Question: What about the pKi [4] of the same compound?
Answer: The pKi was 8.10.

Question: What about the MED (Mus musculus [5]) of the same compound?
Answer: Its MED is “<= 3 mg kg-1”.

Question: What about the minimal effective dose (Mus musculus [6]) of the same compound?
Answer: Its minimal effective dose is no more than 3 mg/kg.

Question: What about the pKi [7] of the same compound?
Answer: The pKi was 6.77.

Question: What about the minimal effective dose (Mus musculus [8]) of the same compound?
Answer: Its minimal effective dose is 3 mg/kg.

Question: How did the Activity (Mus musculus [9]) turn out when `CNC1=Nc2ccc(Cl)cc2C(c2ccccc2)=[N+]([O-])C1.Cl` [CHLORDIAZEPOXIDE HYDROCHLORIDE] was run?
Answer: The Activity was “Non-toxic”.

Question: What about the Activity (Mus musculus [10]) of the same compound?
Answer: Its Activity is “Active”.

Question: `O=C(NCCCCN1CCN(c2ccccc2)CC1)c1ccc2ncccc2c1` was tested. Which Activity (Rattus norvegicus [11]) did it give?
Answer: The Activity was “Active”.

Question: And the Activity (Rattus norvegicus [12])?
Answer: The Activity was “Dose-dependent effect”.

Question: What about the Activity (Rattus norvegicus [13]) of the same compound?
Answer: The Activity was “Active”.

Question: And the Activity (Rattus norvegicus [14])?
Answer: The Activity was “Active”.

Question: What about the Activity (Mus musculus [15]) of the same compound?
Answer: Its Activity is “Active”.

Question: And the Activity (Rattus norvegicus [16])?
Answer: Its Activity is “Active”.

Question: What about the Activity (Mus musculus [17]) of the same compound?
Answer: The Activity was “Active”.

Question: And the Activity (Rattus norvegicus [18])?
Answer: The Activity was “Active”.

Question: And the inhibition [19]?
Answer: The inhibition was 94%.

Question: And the Activity (Rattus norvegicus [20])?
Answer: Its Activity is “inactive”.

Question: And the inhibition (D(3) dopamine receptor [21])?
Answer: The inhibition was 69%.

Question: And the Activity [22]?
Answer: The Activity was 66%.

Question: And the Activity (Rattus norvegicus [23])?
Answer: Its Activity is “Active”.

Question: What about the Activity (Mus musculus [24]) of the same compound?
Answer: The Activity was “inactive”.

Question: What about the Activity (Rattus norvegicus [25]) of the same compound?
Answer: The Activity was “inactive”.

Question: What about the Activity (D(3) dopamine receptor [26]) of the same compound?
Answer: Its Activity is 21%.

Question: What about the inhibition [27] of the same compound?
Answer: Its inhibition is 19%.

Question: What about the Activity (Mus musculus [28]) of the same compound?
Answer: The Activity was “Dose-dependent effect”.
